For 5 compounds, Activity and logP results are on record in ChEMBL document CHEMBL1139769, “PASS-predicted design, synthesis and biological evaluation of cyclic nitrones as nootropics” (Bioorg Med Chem Lett, 2007).

In data set [1] the test system is Mus musculus. Description: Nootropic effect in Albino mouse assessed as decrease in transfer latency at 75 mg/kg, po after 24 hrs by elevated plus maze test. In kind it is functional. Set-up: scale not given: the % may be the effect or the level left.
A short description of data set [2]: Partition coefficient, log P of the compound. It is filed as physicochemical. As to conditions: octanol/water.
The subject of data set [3] is Mus musculus. In words: Nootropic effect in Albino mouse assessed as decrease in transfer latency at 200 mg/kg, ip after 24 hrs by elevated plus maze test. It is filed as functional. Further details: scale not given: the % may be the effect or the level left. As to conditions: route intraperitoneal.

Molecules are shown by their SMILES.

A word on the logP: it is the decadic logarithm of the partition coefficient of the neutral form, usually between octanol and water. As for `O=[N+]([O-])c1ccc(C2=[N+]([O-])C(c3ccccc3)N(C3CCCCC3)C2)cc1` (centres undefined), in data set [1], the Activity is listed as 51.6%. For the same compound, the logP in data set [2] was 2.41. In the case of `CN(C)c1ccc(C2N(Cc3ccccc3)CC(c3ccc([N+](=O)[O-])cc3)=[N+]2[O-])cc1` (centres undefined), the Activity in data set [1] is listed as 10.8%. Also, in data set [2], the logP came to 2.02. For `COc1ccc(N2CC(c3ccc([N+](=O)[O-])cc3)=[N+]([O-])C2c2ccc(N(C)C)cc2)cc1` (centres undefined) the same measures were 40.4% and 2.32.

Take `O=[N+]([O-])c1ccc(C2=[N+]([O-])C(c3ccccc3)N(c3ccccc3)C2)cc1` (centres undefined): in data set [1], the Activity was 36.4%. In addition, the lipophilicity (logP) in data set [2] was found to be 2.45. For the compound `NC(=O)CN1CCCC1=O` [PIRACETAM], the Activity in data set [3] came out at 51.3%.
